Laboratory results: US6794416B2, “Methods, compositions and modes of delivery for the treatment of emphysema using 13-cis-retinoic acid” (Syntex (U.S.A.) LLC, priority 2000, dated 2004)
Read-outs that look alike come from different tables or passages of the source. Marks after values point to notes of the source that are not given here.

Experiments:
[1] = tested on: rat model of elastase-induced emphysema; experiment: alveolar repair in the rat model of elastase-induced emphysema; assay type: in vivo, male Sprague Dawley rats; conditions: for % Alveolar Repair: starting 21 days post elastase injury, relative to elastase + vehicle
Procedure: All-trans retinoic acid (ATRA) and 13-cis-retinoic acid were evaluated for their effects on alveolar repair in the rat model of elastase-induced emphysema (Massaro et al., Nature, 1997, Vol. 3, No. 6:675; Massaro et al., U.S. Pat. No. 5,998,486). Animals were divided into treatment groups of approximately eight. Lung inflammation and alveolar damage was induced in male Sprague Dawley rats by a single instillation of about 2 U/gram body mass of pancreatic elastase (porcine derived, Calbiochem).
(§1) Animals treated with ATRA and 13-cis-retinoic acid prepared in Capmul at the dosage ranges enumerated in Table 6 were dosed orally once per day starting 21 days post injury. Control groups were challenged with elastase and 21 days later were treated with vehicle (Capmul solution) for 14 days. Animals were sacrificed 24 hours after the last dose by exsanguination under deep anesthesia. Blood was collected at time of exsanguination for analysis.
The lungs were inflated with 10% neutral buffered formalin by intratracheal instillation at a constant rate (1 ml/gram body mass/min). The lung was excised and immersed in fixative for 24 hours prior to processing. Alveolar measurements were made in four regions of the lung/rat. The mean value/treatment group was determined by summing the average area/rat for all eight rats relative to the elastase+ vehicle treated group. […] Standard methods were used to prepare 5 μm paraffin sections. Sections were stained with Hematoxylin and Eosin. Computerized Morphometric analysis was performed to determine the average alveolar size and alveolar number.

[2] = set-up: species or system male Sprague Dawley rats; conditions: rat, in vivo, po
Procedure: as §1
Quantitation of triglycerides contained in rat plasma was performed using established procedures in a contact clinical laboratory facility. Briefly, plasma triglycerides were converted to dihdroxyacetone and hydrogen peroxide by sequential treatment of plasma with lipase and glycerokinase according directions described by the manufacturer of triglycerides/GPO kit (Boehringer Mannheim #1488872). Hydrogen peroxide was quantitated colorimetrically in a Hitachi 911 Chemistry Analyzer. In rats normal triglyceride levels are between about 75 mg/dl and about 175 mg/dl.
Triglyceride values are a convenient measure of toxicity. […] Furthermore, at every dosage level tested, the triglyceride levels observed with 13-cis-retinoic acid were lower than that observed for ATRA.

[3] = oral dose 0.1 mg/kg once per day
[4] = oral dose 1.0 mg/kg once per day
[5] = oral dose 10.0 mg/kg once per day

Row | Structure (SMILES) | statistical significance of alveolar repair relative to elastase treated control ([1]; dosage of 0.001 mg/kg) | statistical significance of alveolar repair relative to elastase treated control ([1]; dosage range from 10.0 mg/kg to as low as 0.01 mg/kg) | % Alveolar Repair ([1]; oral dose 0.001 mg/kg once per day) | % Alveolar Repair ([1]; oral dose 0.01 mg/kg once per day) [%] | % Alveolar Repair [1, 3] | % Alveolar Repair [1, 4] [%] | % Alveolar Repair [1, 5] [%] | Triglyceride ([2]; 0.001 mg/kg) [mg/dL] | Triglyceride ([2]; 0.01 mg/kg) [mg/dL] | Triglyceride ([2]; 0.1 mg/kg) [mg/dL] | Triglyceride ([2]; 1 mg/kg) [mg/dL] | Triglyceride ([2]; 10 mg/kg) [mg/dL] | statistical significance of alveolar repair relative to elastase treated control ([1]; dosages below 0.3 mg/kg) | % Alveolar Repair ([1]; oral dose 0.3 mg/kg once per day) | % Alveolar Repair ([1]; oral dose 3.0 mg/kg once per day) [%] | Triglyceride ([2]; 0.3 mg/kg) [mg/dL] | Triglyceride ([2]; 3 mg/kg) [mg/dL]
1 | CC1=C(/C=C/C(C)=C/C=C/C(C)=C\C(=O)O)C(C)(C)CCC1 [13-cis-retinoic acid, (13Z)-retinoic acid] | statistically insignificant | statistically significant | 12* % | 38 | 30% | 45 | 56 | 125 | 73 | 82 | 128 | 147 |  |  |  |  | 
2 | CC1=C(/C=C/C(C)=C/C=C/C(C)=C/C(=O)O)C(C)(C)CCC1 [ATRA, All-trans retinoic acid] |  |  |  |  | 8.8* % | 45 | 53 |  |  | 152 | 175 | 378 | not statistically significant | 30* % | 47 | 149 | 307
